Test results taken from US11844794B2, “Pharmaceutical compositions” (ADEPTIO PHARMACEUTICALS LIMITED, priority 2017, dated 2023).
Entries after “also recorded” stand apart in the source; their conditions may differ. Like-named read-outs stand apart in the source and are kept apart here.

What was measured:
[1] = thermal gravimetric analysis (TGA) / thermal stability; conditions: for TGA weight loss: 30-300° C. at 10° C./minute
Method: Differential scanning calorimetry (DSC) was carried out on the sample “as is” using a Mettler DSC1 instrument. The sample was weighed I an aluminium pan, covered with a pierced lid, and then crimped and analysed from 30-300° C. at 10° C./minute.
Thermal gravimetric analysis was performed on the sample “as is” using a Mettler 851^e TGA instrument. The sample was weighed in an alumina crucible and analysed from 30-300° C. at 10° C./minute.

[2] = solid form stability in slurry / polymorphism by XRPD; assay type: physicochemical; conditions: for crystalline form after stirring in slurry (XRPD): one week
[3] = equilibrium aqueous solubility by HPLC; assay type: physicochemical
Method: The aqueous solubilities of salts were measured by an equilibrium method in which an amount of the salt was weighed into a 2 ml vial equipped with a magnetic stirrer bar and water added. In cases where complete dissolution was observed, more material was added until the sample was exhausted. The slurry was then stirred for seven days before isolating the solids by centrifuge-filtration. The solids were analysed by XRPD and the filtrates were analysed by HPLC to determine the amount of (+)-alpha-dihydrotetrabenazine salt in solution. The solubilities were calculated against a calibration curve established for a (+)-alpha-dihydrotetrabenazine sample of known concentration.

[4] = test system: Tardive Dyskinesia sufferers; conditions: Valbenazine 80 mg/day; cited from earlier work
[5] = test system: patients suffering from tardive dyskinesia; conditions: cited from earlier work
[6] = moisture-sorption analysis; assay type: physicochemical; conditions: for moisture uptake: 25° C.
Method: Moisture-sorption analysis was carried out using a Hiden IGA Sorp moisture-sorption analyser. […] The sample was then subjected to an isothermal (at 25° C.) adsorption scan from 40 to 90% relative humidity in steps of 10%. The sample was allowed to equilibrate to an asymptotic weight at each point for a maximum of four hours. […] An adsorption scan was then performed from 0 to 40% relative humidity inn steps of 10%. The sample was dried for two hours at 60° C. and 0% relative humidity, and the resulting solid was analysed by XRPD.

[7] = test system: non-amphetamine induced rats; assay: locomotor activity in rats without amphetamine induction, open field test; assay type: in vivo, rat; conditions: Study 3, non-induced rats, 1 mg/kg
Method: (§1) All animal experiments were carried out according to the National Institute of Health (NIH) guidelines for the care and use of laboratory animals, and approved by the National Animal Experiment Board, Finland. Male CD (Charles River Laboratories, Germany) at weight range of 200-250 g (165-200 g upon arrival) were used for the experiments. Animals were housed at a standard temperature (22±1° C.) and in a light-controlled environment (lights on from 7 am to 8 pm) with ad libitum access to food and water.
(§2) Locomotor activity of the rats was tested in open field arena. The open field test was performed during the rat light cycle and under a normal lighting evenly distributed to the test chambers. The paths of the rats were recorded by activity monitor (Med. Associates Inc.).
(§3) Dosing the vehicle, vehicle-amphetamine, (+)-α-DHTBZ or risperidone was done prior to LMA test. The rats were placed in the centre of the arena, and the path was recorded for 60 minutes.
Animals were grouped as follows: • Group 1: 10 rats treated with Vehicle • Group 2: 10 rats treated with (+)-α-DHTBZ 2.5 mg/kg • Group 3: 10 rats treated with (+)-α-DHTBZ 5 mg/kg • Group 4: 10 rats treated with risperidone 1 mg/kg

amphetamine-induced rats = assay: amphetamine-induced locomotor activity, open field test; assay type: in vivo, rat; conditions: male CD rats
Method: as §1, §2, §3
Animals were grouped as follows: • Group 1: 10 rats treated with Vehicle (t=0 min) and Vehicle (t=30 min) • Group 2: 10 rats treated with Vehicle (t=0 min) and Amphetamine (t=30 min) • Group 3: 10 rats treated with (+)-α-DHTBZ 0.5 mg/kg (t=0 min) and Amphetamine (t=30 min) • Group 4: 10 rats treated with (+)-α-DHTBZ 1 mg/kg (t=0 min) and Amphetamine (t=30 min) • Group 5: 10 rats treated with (+)-α-DHTBZ 1.5 mg/kg (t=0 min) and Amphetamine (t=30 min) • Group 6: 10 rats treated with (+)-α-DHTBZ 2 mg/kg (t=0 min) and Amphetamine (t=30 min) • Group 7: 10 rats treated with risperidone 1 mg/kg (t=0 min) and Amphetamine (t=30 min)
(§4) Rats dosed with either vehicle, (+)-α-DHTBZ 0.5 mg/kg, (+)-α-DHTBZ 1 mg/kg, (+)-α-DHTBZ 1.5 mg/kg, (+)-α-DHTBZ 2 mg/kg or Risperidone 1 mg/kg were subjected to LMA testing first for 30 min and then for 60 minutes after vehicle or amphetamine challenge. Resulting locomotor activity was evaluated in 3 min bins and as a total over the testing period.
as §4, with “stereotypic” for “locomotor”, “period. […]” for “period.”

[8] = target: Chromaffin Granule Monoamine Transporter (Bos taurus, UniProt Q27963); conditions: racemic α versus racemic β, in vitro; cited from earlier work
Sequence of Chromaffin Granule Monoamine Transporter (Q27963 whole entry): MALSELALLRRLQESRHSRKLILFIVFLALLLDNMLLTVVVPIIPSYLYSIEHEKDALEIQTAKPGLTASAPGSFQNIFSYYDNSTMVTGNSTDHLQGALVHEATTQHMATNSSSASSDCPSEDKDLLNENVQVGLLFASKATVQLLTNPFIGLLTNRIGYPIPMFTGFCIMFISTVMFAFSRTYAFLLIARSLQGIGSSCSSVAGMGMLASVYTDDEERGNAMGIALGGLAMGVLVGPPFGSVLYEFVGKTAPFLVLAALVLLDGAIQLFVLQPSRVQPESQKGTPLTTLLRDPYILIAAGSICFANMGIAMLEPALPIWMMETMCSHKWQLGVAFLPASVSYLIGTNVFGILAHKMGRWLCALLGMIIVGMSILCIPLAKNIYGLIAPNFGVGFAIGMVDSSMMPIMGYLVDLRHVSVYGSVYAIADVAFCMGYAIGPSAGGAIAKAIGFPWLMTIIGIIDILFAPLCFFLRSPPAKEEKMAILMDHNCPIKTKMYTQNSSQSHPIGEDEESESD

Compound: COc1cc2c(cc1OC)[C@H]1C[C@@H](O)[C@H](CC(C)C)CN1CC2.Cl [HCl salt form A, (+)-α-dihydrotetrabenazine hydrochloride]
- TGA weight loss [1]: No weight loss
- polymorphism [2]: undesirable polymorphism
- crystalline form after stirring in slurry (XRPD) ([2]; aqueous slurry): conversion to a different (by XRPD) crystalline form
- equilibrium solubility in water [3]: 203 mg/mL
- solubility thermodynamic [3]: 203 mg/mL

Compound: COc1cc2c(cc1OC)[C@H]1C[C@@H](OC(=O)[C@@H](N)C(C)C)[C@H](CC(C)C)CN1CC2 [Valbenazine]
- Abnormal Involuntary Movement Score [4]: significant improvement
- improvement scored with AIMS ([5]; Valbenazine 50 mg/day): did not show any significant signs of improvement
- reduction of symptoms (AIMS) ([5]; Valbenazine 100 mg/day): some reduction of symptoms

Compound: COc1cc2c(cc1OC)[C@H]1C[C@@H](O)[C@H](CC(C)C)CN1CC2.O=S(=O)(O)c1ccccc1 [benzenesulphonate salt]
- TGA weight loss [1]: No weight loss
- thermal stability ([1]; from DSC and TGA): good thermal stability
- polymorphism [2]: no apparent polymorphism
- crystalline form after stirring in slurry (XRPD) ([2]; water, ethanol and ethyl acetate slurry): remained unchanged
- equilibrium solubility in water ([3]; water, measured by HPLC): 2.20 mg/mL
- moisture uptake ([6]; 60% relative humidity): 0.2 wt %
- moisture uptake ([6]; 90% relative humidity): 1.7 wt %
- hygroscopicity ([6]; gravimetric moisture-sorption): slightly hygroscopic

Compound: Cc1nc2n(c(=O)c1CCN1CCC(c3noc4cc(F)ccc34)CC1)CCCC2 [risperidone, reference compound]
- total movement versus vehicle [7]: reduced total movement
- total stereotypic behaviour versus vehicle [7]: reduced total stereotypic behaviour
- total distance travelled compared to vehicle-amphetamine group (amphetamine-induced rats; Study 1, 1 mg/kg): lower locomotor activity
- total stereotypic behaviour compared to vehicle-amphetamine group (amphetamine-induced rats; Study 1, 1 mg/kg): significantly different; also recorded: reduced stereotypic behaviour
- total distance travelled compared to vehicle-amphetamine group (amphetamine-induced rats; Study 2, 1 mg/kg): lower locomotor activity
- total stereotypic behaviour compared to vehicle-amphetamine group (amphetamine-induced rats; Study 2, 1 mg/kg): significantly different; also recorded: reduced stereotypic behaviour

Compound: α-dihydrotetrabenazine
- higher affinity than the β-isomer [8]: 3- to 4 fold
